Results reported in US8278460B2, “Substituted benzimidazoles” (Concert Pharmaceuticals, Inc., priority 2009, dated 2012).

What was measured:
rodent anxiety models = conditions: in vivo; cited from earlier work
[1] = Metabolic stability in human liver microsomes; assay type: in vitro ADME; conditions: for % Parent Remaining (30 min) Ave ± SD: 2.0 mg/mL human liver microsomes, 2 mM NADPH, pH 7.4, 37° C., average of 3 experiments
Description: Human liver microsomes (20 mg/mL) were available from Xenotech, LLC (Lenexa, Kans.). β-nicotinamide adenine dinucleotide phosphate, reduced form (NADPH), magnesium chloride (MgCl2), and dimethyl sulfoxide (DMSO) are available from Sigma-Aldrich.
7.5 mM stock solutions of test compound 102 as well as of NS11394 were prepared in DMSO. The 7.5 mM stock solutions were diluted to 12.5 in acetonitrile (ACN). The 20 mg/mL human liver microsomes were diluted to 2.5 mg/mL in 0.1 M potassium phosphate buffer, pH 7.4, containing 3 mM MgCl2. The diluted microsomes were added to wells of a 96-well deep-well polypropylene plate in triplicate. A […] aliquot of the 12.5 test compound 102 was added to the microsomes and the mixture was pre-warmed for 10 minutes. Reactions were initiated by addition of pre-warmed NADPH solution. The final reaction volume was 0.5 mL and contained 2.0 mg/mL human liver microsomes, 0.25 test compound, and 2 mM NADPH in 0.1 M potassium phosphate buffer, pH 7.4, and 3 mM MgCl2. The reaction mixtures were incubated at 37° C., and […] aliquots were removed at 0, 5, 10, 20, and 30 minutes and added to shallow-well 96-well plates which contain […] of ice-cold ACN with internal standard to stop the reactions. The plates were stored at 4° C. for 20 minutes after which […] of water was added to the wells of the plate before centrifugation to pellet precipitated proteins. Supernatants were transferred to another 96-well plate and analyzed for amounts of parent remaining by LC-MS/MS using an AB SCIEX QTRAP® 5500. Testing was done in triplicate.
The in vitro t1/2s for test compounds were calculated from the slopes of the linear regression of % parent remaining (ln) vs incubation time relationship: in vitro t1/2=0.693/k k=−[slope of linear regression of % parent remaining (ln) vs incubation time]. Data analysis was performed using Microsoft Excel Software.
The testing was done in triplicate and the values shown in the table reflect the average of 3 experiments. […]

GABAA α3 receptors = target: T1, GABAA α3 receptors (Homo sapiens, UniProt P18507+P34903); conditions: cited from earlier work
T1 sequence (P34903 29-492): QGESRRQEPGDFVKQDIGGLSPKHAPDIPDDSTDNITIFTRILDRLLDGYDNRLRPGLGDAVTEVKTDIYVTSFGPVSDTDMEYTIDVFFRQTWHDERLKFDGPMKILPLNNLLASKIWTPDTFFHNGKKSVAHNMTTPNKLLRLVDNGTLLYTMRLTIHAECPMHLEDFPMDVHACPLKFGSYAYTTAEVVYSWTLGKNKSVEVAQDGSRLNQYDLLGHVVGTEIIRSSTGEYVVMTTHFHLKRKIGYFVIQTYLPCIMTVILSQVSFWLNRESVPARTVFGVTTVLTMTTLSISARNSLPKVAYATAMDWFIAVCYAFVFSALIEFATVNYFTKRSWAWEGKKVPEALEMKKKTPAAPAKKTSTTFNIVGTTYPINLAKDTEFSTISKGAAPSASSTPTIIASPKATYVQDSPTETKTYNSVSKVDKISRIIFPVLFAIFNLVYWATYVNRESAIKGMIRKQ
T1 sequence (P18507 40-467 limits assumed): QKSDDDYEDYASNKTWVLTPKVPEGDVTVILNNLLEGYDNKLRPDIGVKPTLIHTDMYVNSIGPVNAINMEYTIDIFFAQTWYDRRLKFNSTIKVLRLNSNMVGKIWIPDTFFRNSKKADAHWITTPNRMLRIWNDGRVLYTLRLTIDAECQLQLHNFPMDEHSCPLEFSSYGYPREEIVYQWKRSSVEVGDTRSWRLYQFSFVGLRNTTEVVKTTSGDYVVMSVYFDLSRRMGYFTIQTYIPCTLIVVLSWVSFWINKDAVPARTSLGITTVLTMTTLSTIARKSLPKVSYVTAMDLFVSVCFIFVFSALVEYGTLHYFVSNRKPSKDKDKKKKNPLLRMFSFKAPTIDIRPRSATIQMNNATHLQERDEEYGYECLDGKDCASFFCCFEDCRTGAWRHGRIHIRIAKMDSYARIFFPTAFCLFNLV
T1 sequence (P47870 25-512 partner limits assumed): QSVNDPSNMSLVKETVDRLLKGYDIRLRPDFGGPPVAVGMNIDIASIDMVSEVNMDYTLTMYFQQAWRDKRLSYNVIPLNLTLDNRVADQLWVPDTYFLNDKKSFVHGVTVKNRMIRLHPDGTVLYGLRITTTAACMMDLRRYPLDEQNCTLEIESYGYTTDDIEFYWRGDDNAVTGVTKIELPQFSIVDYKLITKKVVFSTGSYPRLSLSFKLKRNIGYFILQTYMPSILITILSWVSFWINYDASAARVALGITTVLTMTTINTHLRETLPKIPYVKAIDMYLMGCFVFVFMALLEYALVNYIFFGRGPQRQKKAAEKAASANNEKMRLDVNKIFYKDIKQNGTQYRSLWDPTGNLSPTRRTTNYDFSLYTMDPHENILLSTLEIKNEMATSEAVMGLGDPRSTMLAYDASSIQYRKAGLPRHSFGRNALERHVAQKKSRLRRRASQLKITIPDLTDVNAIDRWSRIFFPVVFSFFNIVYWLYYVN

[2] = system: inflammatory and neuropathic pain-like behaviors in animal models; conditions: cited from earlier work
[3] = animal models, oral administration

| Structure (SMILES) | efficacy in rodent anxiety models (rodent anxiety models) | % Parent Remaining (30 min) Ave ± SD [1] [%] | half-life ([1]; human, human liver microsomes, pH 7.4, in vitro t1/2 from linear regression of ln % parent remaining vs incubation time, NC = not calculable due to <20% metabolism in HLM, read-out: t1/2 (min) Ave ± SD) [min] | efficacy at GABAA α3 receptors (GABAA α3 receptors) | reversal of inflammatory and neuropathic pain-like behaviors [2, 3] | tolerability [2, 3] | dependence issues ([2]; in vivo) |
| --- | --- | --- | --- | --- | --- | --- | --- |
| CC(C)(O)c1ccc2c(c1)ncn2-c1cccc(-c2ccccc2C#N)c1 [NS11394, 3′-[5-(1-hydroxy-1-methylethyl)-1H-benzimidazol-1-yl]biphenyl-2-carbonitrile] | potent and highly effective | 77 ± 3.7 | 95 ± 35 | high efficacy | completely reverse | well tolerated | No dependence issues were observed |
| [2H]C([2H])([2H])C(O)(c1ccc2c(c1)ncn2-c1cccc(-c2ccccc2C#N)c1)C([2H])([2H])[2H] [Compound 102, 3′-(5-(2-Hydroxy-1,1,1,3,3,3-d6-propan-2-yl)-1H-benzo[d]imidazol-1-yl)biphenyl-2-carbonitrile] | – | 101 ± 8.7 | – | – | – | – | – |
